According to article PMC7615053 (Nature methods, 2023):
Like-named read-outs stand apart in the source and are kept apart here.

Assays:
nLightG [1] = molecular target: T1, nLightG (Physeter macrocephalus, UniProt A0A2Y9EW94); assay: Confocal imaging of nLightG in HEK293T cells; format: cell-based, sperm whale; conditions: for fluorescence response of nLightG to neurotransmitter: 10 μM, HEK293T cells
T1 sequence (A0A2Y9EW94 with tags, fused parts or gaps): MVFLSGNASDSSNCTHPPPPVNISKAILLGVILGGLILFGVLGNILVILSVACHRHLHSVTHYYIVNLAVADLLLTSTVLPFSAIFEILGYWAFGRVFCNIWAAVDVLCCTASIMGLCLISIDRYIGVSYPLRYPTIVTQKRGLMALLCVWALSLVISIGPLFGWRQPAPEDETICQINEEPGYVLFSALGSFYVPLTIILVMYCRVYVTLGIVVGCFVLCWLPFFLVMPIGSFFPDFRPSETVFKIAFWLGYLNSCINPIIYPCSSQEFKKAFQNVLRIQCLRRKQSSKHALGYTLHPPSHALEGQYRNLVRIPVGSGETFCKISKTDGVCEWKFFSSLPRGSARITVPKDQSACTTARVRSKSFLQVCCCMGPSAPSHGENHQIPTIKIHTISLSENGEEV

nLightR [2] = molecular target: T2, nLightR (Physeter macrocephalus, UniProt A0A2Y9EW94); assay: Confocal imaging of nLightR in HEK293T cells; format: cell-based, sperm whale; conditions: for fluorescence response of nLightR to neurotransmitter: 10 μM, HEK293T cells
T2 sequence (A0A2Y9EW94 with tags, fused parts or gaps): T1 sequence (A0A2Y9EW94 with tags, fused parts or gaps)

GRABNE1m [3] = assay: Confocal imaging of GRABNE1m in HEK293T cells; format: cell-based
nLightG [4] = molecular target: T1, nLightG; assay: Ligand perfusion on acute brain slices; design: species or system sperm whale
nLightR [5] = molecular target: T2, nLightR; assay: Ligand perfusion on acute brain slices; design: species or system sperm whale
[6] = tested on: tail-lift-induced NE release; assay: Fiber photometry in lateral hypothalamus during tail-lifting; format: in vivo, mouse; conditions: trazodone 1 mg/kg or yohimbine 4 mg/kg, i.p., mice
GRABNE1m [7] = tested on: GRABNE1m
[8] = tested on: optogenetically-evoked NE release; assay: Dual-site fiber photometry in LC and dHPC during optogenetic LC stimulation; format: in vivo, mouse; conditions: desipramine 10 μg/g i.p., awake mice
[9] = molecular target: T3, sperm whale-based indicator (Alpha-1 AR, red prototype) (Physeter macrocephalus, UniProt A0A2Y9EW94); assay: Dose-response of the sperm whale-based red indicator prototype in HEK293T cells; format: cell-based
T3 sequence (A0A2Y9EW94 with tags, fused parts or gaps): T1 sequence (A0A2Y9EW94 with tags, fused parts or gaps)

nLightG [10] = molecular target: T1, nLightG; assay: Plate reader dose-response of nLightG in HEK293T cells; format: cell-based, sperm whale
nLightR [11] = molecular target: T2, nLightR; assay: Plate reader dose-response of nLightR in HEK293T cells; format: cell-based, sperm whale
GRABNE1m [12] = conditions: HEK293T cells
human DRD1 = conditions: DA 10 μM, DRD1 (positive control)
[13] = tested on: optogenetically-evoked NE signals; format: in vivo, mouse; conditions: yohimbine 4 mg/kg i.p., vHPC, isoflurane anesthesia, 5 Hz LC stimulation
[14] = tested on: green fluorescent NE indicator prototype (sperm whale Alpha-1 AR); assay: Fluorescence response of the green NE indicator prototype; format: cell-based; conditions: green prototype with fluorescent protein module from dLight1.3b
swAlpha-1 AR [15] = format: cell-based, sperm whale; conditions: NE 10 μM, wild-type swAlpha-1 AR, HEK293T
nLightG [16] = molecular target: T1, nLightG; assay: Intracellular calcium signaling; format: cell-based, sperm whale; conditions: NE 10 μM, HEK293T
nLightR [17] = molecular target: T2, nLightR; assay: Intracellular calcium signaling; format: cell-based, sperm whale; conditions: NE 10 μM, HEK293T
swAlpha-1 AR [18] = assay: NanoBiT complementation assay in HEK293T cells; format: cell-based, sperm whale; conditions: NE 10 μM
nLightG [19] = molecular target: T1, nLightG; assay: NanoBiT complementation assay in HEK293T cells; format: cell-based, sperm whale; conditions: NE 10 μM
nLightR [20] = molecular target: T2, nLightR; assay: NanoBiT complementation assay in HEK293T cells; format: cell-based, sperm whale; conditions: NE 10 μM
[21] = after NE 10 μM, Trz 10 μM, HEK293T cells and neurons
[22] = trazodone 10 μM after NE 50 μM, brain slices

Question: How did the “fluorescence response of nLightG to neurotransmitter” value (nLightG [1]) turn out when `CNC[C@H](O)c1ccc(O)c(O)c1` [epinephrine] was run?
Answer: significant fluorescence response

Question: What about the “fluorescence response of nLightR to neurotransmitter” value (nLightR [2]) of the same compound?
Answer: significant fluorescence response

Question: Which results are given for `O=c1n(CCCN2CCN(c3cccc(Cl)c3)CC2)nc2ccccn12` [trazodone]?
Answer: effect of antagonist on NE-induced activation of nLightG (nLightG [1]; [21]): fully reversed; effect of antagonist on NE-induced activation of nLightR (nLightR [2]; [21]): fully reversed; effect of antagonist on NE-induced activation of GRABNE1m (GRABNE1m [3]; after NE 10 μM, Trz 100 nM, Yoh 100 nM, HEK293T): not affected; effect on NE-induced response (nLightG [4]; [22]): largely reversed; effect on NE-induced response (nLightR [5]; [22]): largely reversed; effect on tail-lift-induced GRABNE1m signals [6]: no effect; effect on tail-lift-induced response of nLightG [6]: significantly reduced; effect on tail-lift-induced response of nLightR [6]: significantly reduced; effect on NE-induced response (GRABNE1m [7]; [22]): no significant effect

Question: For `CNCCCN1c2ccccc2CCc2ccccc21` [desipramine], which “effect on magnitude and decay kinetics of the nLightG response in LC” value [8] is on record?
Answer: significant increase

Question: With `NCCc1ccc(O)c(O)c1` [DA, dopamine] as the compound, how does the EC50 [9] read?
Answer: 21.5 µM

Question: What about the “fluorescence response of nLightG to neurotransmitter” value (nLightG [1]) of the same compound?
Answer: significant fluorescence response

Question: And the “fluorescence response of nLightR to neurotransmitter” value (nLightR [2])?
Answer: significant fluorescence response

Question: And the “agonist character at nLightG” value (nLightG [10])?
Answer: partial agonist

Question: What about the “EC50 of DA relative to that of NE” value (nLightG [10]; nLightG) of the same compound?
Answer: approximately 30 fold

Question: And the “agonist character at nLightR” value (nLightR [11])?
Answer: partial agonist

Question: And the “EC50 of DA relative to that of NE” value (nLightR [11]; nLightR)?
Answer: approximately 30 fold

Question: What about the “response to DA relative to response to identical concentration of NE” value (nLightG [4]; 50 μM, mouse LH brain slices) of the same compound?
Answer: about 12%

Question: What about the “response to DA relative to response to identical concentration of NE” value (nLightR [5]; 50 μM, mouse LH brain slices) of the same compound?
Answer: ~3%

Question: And the “EC50 for DA relative to that for NE” value (GRABNE1m [12])?
Answer: 8 fold

Question: And the “maximal response to DA as fraction of the response to NE” value (GRABNE1m [12])?
Answer: 35%

Question: And the “recruitment of β-arrestin-2” value (human DRD1)?
Answer: significant recruitment

Question: What about the “response to DA relative to response to NE” value (GRABNE1m [7]; 50 μM, mouse LH brain slices) of the same compound?
Answer: about 19%

Question: Which “effect of antagonist on NE-induced activation of GRABNE1m” value (GRABNE1m [3]) does the source give for `COC(=O)[C@@H]1[C@H]2C[C@H]3c4[nH]c5ccccc5c4CCN3C[C@@H]2CC[C@@H]1O` [yohimbine] here?
Answer: fully inactivated

Question: What about the “effect on tail-lift-induced GRABNE1m signals” value [6] of the same compound?
Answer: strongly attenuated

Question: And the “effect on tail-lift-induced response of nLightG” value [6]?
Answer: increased

Question: And the “effect on tail-lift-induced response of nLightR” value [6]?
Answer: increased

Question: And the “effect on optogenetically-evoked NE signals monitored via GRABNE1m” value [13]?
Answer: significantly attenuated

Question: What about the “effect on optogenetically-evoked NE signals reported by nLightG” value [13] of the same compound?
Answer: did not have a significant effect

Question: What does the source list for `NC[C@H](O)c1ccc(O)c(O)c1` [NE, norepinephrine]?
Answer: EC50 [9]: 0.574 µM; ΔF/F0 response [14]: approximately 1000%; fluorescence response of nLightG to neurotransmitter (nLightG [1]): significant fluorescence response; fluorescence response of nLightR to neurotransmitter (nLightR [2]): significant fluorescence response; intracellular Ca2+ concentration (swAlpha-1 AR [15]): significant increase; intracellular Ca2+ concentration (nLightG [16]): did not induce a significant increase; intracellular Ca2+ concentration (nLightR [17]): did not induce a significant increase; coupling to mini-Gi (swAlpha-1 AR [18]): no significant coupling; coupling to mini-Gq and mini-Gs (swAlpha-1 AR [18]): significant coupling; coupling to mini-Gq, mini-Gs or mini-Gi (nLightG [19]): did not lead to a significant coupling; recruitment of β-arrestin-2 (nLightG [19]): no recruitment; coupling to mini-Gq, mini-Gs or mini-Gi (nLightR [20]): did not lead to a significant coupling; recruitment of β-arrestin-2 (nLightR [20]): no recruitment
